Laboratory results published in patent US6825232B2, “Use of hydroxyeicosatetraenoic acid compounds to treat ophthalmic inflammatory disorders” (Alcon, Inc., priority 2002, dated 2004).
Marks after values point to notes of the source that are not given here.

How the values were obtained:
IL-6 [1] = settings: bone marrow stromal cells; cited from earlier work
IL-8 = settings: 1 μM to 0.1 nM; human bone marrow stromal cells; cited from earlier work
IL-6 [2] = assay: IL-6 release from IL-1β-stimulated primary human corneal fibroblast cells (ELISA); assay type: cell-based; settings: for % Inhibition of IL-6 (pg/μg dsDNA): 30 min pretreatment, 10 ng/ml IL-1β for 3 hours, normalized to dsDNA
Method: Primary human corneal fibroblast cells were obtained from one donor and grown to confluence in Ham's F-10 medium. Fibroblasts were transferred to serum-free media and were pretreated for 30 minutes with various concentrations of 15(S)-HETE. The cells were then stimulated with 10 ng/ml IL-1β for 3 hours and aliquots of the supernatants were assayed for IL-6 by ELISA. Data were normalized by the amount of double stranded DNA (dsDNA) extracted from the cells.

CCCCC[C@H](O)/C=C/C=C\C/C=C\C/C=C\CCCC(=O)O [15(S)-HETE, 15-Hydroxyeicosatetraenoic acid]
effect on the spontaneous, serum- and cytokine-induced IL-6 synthesis (IL-6 [1]): no effect
effect on the spontaneous and serum-induced production of IL-8 (IL-8): no effect
% Inhibition of IL-6 (pg/μg dsDNA) (IL-6 [2]; 15(S)-HETE 0.5 μg): 53.1%
% Inhibition of IL-6 (pg/μg dsDNA) (IL-6 [2]; 15(S)-HETE 1 μg): 67.9* %
% Inhibition of IL-6 (pg/μg dsDNA) (IL-6 [2]; 15(S)-HETE 2 μg): 88.6** %
% Inhibition of IL-6 (pg/μg dsDNA) (IL-6 [2]; 15(S)-HETE 3 μg): 90.4** %
IC50 (IL-6 [2]; primary human corneal fibroblast cells, IL-1β stimulated, read-out: IC50 for IL-6 inhibition): < 500 nM
